Source: paper PMC8490453, “PbrRALF2-elicited reactive oxygen species signaling is mediated by the PbrCrRLK1L13-PbrMPK18 module in pear pollen tubes” (Horticulture Research, 2021)
In the oligonucleotide strings, read from the 5' end, every base follows the letter of its sugar. An asterisk marks phosphorothioate; unmarked linkages are phosphodiester. Other units and linkages are bracketed, terminal groups are in braces. A string of capitals states the bases alone. d = 2'-deoxy (DNA)

What was measured:
BAK1 = conditions: Arabidopsis; cited from earlier work
From the text: (§1) PbrCrRLK1L13 interacts with its PbrRALF2 ligand via exJM at the plasma membrane (Fig. 2B), similar to the region where LORELEI and LLG1 physically interact with FER[42], thus implying a potentially conserved role for the exJM region of CrRLK1Ls. […] Such phosphorylation by peptides has similarly been observed for multiple receptor-like kin ...

FER = conditions: Arabidopsis; cited from earlier work
From the text: as §1

PbrRALF7 = experiment: Expression of PbrRALF7 after PbrRALF2-ODN treatment; format: cell-based, pear
Description: (§2) The MIQE guidelines were followed for quantitative RT-PCR (qRT–PCR) experiments. The Plant Total RNA Isolation Kit (FOREGENE, Chengdu, China) was used to extract total RNA, and DNase I was used to eliminate genomic DNA contaminants. A RevertAid First Strand cDNA Synthesis Kit was used to reverse transcription purified total RNA (3 μg) (Thermo Scientific, USA). Then, using SYBR Green Master Mix on a LightCycler® 480 II (Roche, Switzerland), quantitative PCR (qPCR) was performed on 20-μl samples according to the manufacturer’s instructions. The thermal cycle was performed at 95 °C for 5 min, followed by 45 cycles of 15 s at 95 °C and 15 s at 60 °C. The pear TUBULIN gene was used as an internal control, and relative expression levels were evaluated using the 2CT2 − △△CT method, as previously described. The primers for RT-PCR and qRT–PCR of PbrRALFs, PbrCrRLK1L13, PbrMPK18, and PbrTUB in pear are presented in Supplementary Tables S5 and S6, respectively.
(§3) Twenty-mer phosphorothioate oligonucleotides against PbrRALF2, PbrCrRLK1L13, PbrMPK18, and their sense controls (s-ODN) were synthesized with three 5′- and 3′-phosphorothioate-modified bases, and a scrambled mismatch sequence was used as a control. […] More than 35 pollen tubes were measured in each treatment, and the experiments were repeated at least three times. […]

PbrRALF11 = experiment: Expression of PbrRALF11 after PbrRALF2-ODN treatment; format: cell-based, pear
Description: as §2, §3

[1] = target: GST-PbrCrRLK1L13-ECD (pear (Pyrus bretschneideri))
[2] = target: GST-PbrCrRLK1L13-ECD (pear (Pyrus bretschneideri)); experiment: ITC; MicroCal ITC200, 25 °C; 200 μM PbrRALF2 in the syringe titrated into 20 μM PbrCrRLK1L13 extracellular domain; 50 mM phosphate pH 7.4, 150 mM NaCl; one set of sites model; apparent
[3] = target: GST-PbrCrRLK1L13-ECD (pear (Pyrus bretschneideri)); experiment: SPR; Biacore T200, 25 °C; PbrCrRLK1L13 immobilised on a CM5 chip by amine coupling; running buffer 10 mM HEPES, 150 mM NaCl, 3 mM EDTA, pH 7.4; PbrRALF2 injected at 15, 30, 60 and 120 nM; steady-state 1:1 model; apparent

For “RALF1: Arabidopsis RALF1, ligand of FER (ATTKYISYQSLKRNSVPCSRRGASYYNCQNGAQANPYSRGCSKIARCRS; UniProt Q9SRY3 72-120, looked up)”, the BAK1 phosphorylation (BAK1) is listed as “BAK1[41] phosphorylation” and the FER phosphorylation (FER) is listed as “triggers FER”.
In the case of “PbrRALF2-ODN-2: antisense ODN GCGCACCGTAGCTGATGT (antisense dG*dC*dG*dCdAdCdCdGdTdAdGdCdTdGdA*dT*dG*dT)”, the “expression level of PbrRALF7” value (PbrRALF7) is reported as “not affected” and the “expression level of PbrRALF11” value (PbrRALF11) is reported as “not affected”.
Substance “recombinant PbrRALF2 (His-PbrRALF fusion protein from pCold-TF) (ligand)” has an IC50 of inhibition of pear pollen tube growth by E. coli-expressed PbrRALF2 (0.025-1 μM) [1] of 0.092 µM, a Kd [2] of 0.512 µM and a Kd [3] of 0.073 µM.
With “PbrRALF2-ODN-1: antisense ODN GTGATGGCGCTGCAGCCGCGG (antisense dG*dT*dG*dAdTdGdGdCdGdCdTdGdCdAdGdCdCdG*dC*dG*dG)” the “expression level of PbrRALF7” value (PbrRALF7) was “not affected” and the “expression level of PbrRALF11” value (PbrRALF11) was “not affected”.
